Read-outs that look alike come from different tables or passages of the source.
Key:
human TLR2 = target: T1, human TLR2 (Homo sapiens, UniProt O60603+Q15399); assay: cell-based
T1 construct: expressed in transfected cells; host or cells: HEK293-NF-κB-Luc cells (clone LP58), stably transfected

[1] = in vivo; cited from earlier work
[2] = test system: B. anthracis (Ames strain); type: in vivo, Bacillus anthracis; conditions: 13 days
Streptococcus pneumoniae = conditions: in vivo; cited from earlier work
[3] = test system: B. anthracis (Ames strain); type: in vivo, Bacillus anthracis; conditions: for survival rate: 17 days
[4] = test system: B. anthracis (Ames strain); parameters: species or system Bacillus anthracis; conditions: in vivo
B. anthracis = test system: B. anthracis; parameters: species or system Bacillus anthracis; conditions: in vivo
S. aureus = conditions: in vivo; cited from earlier work
PA = conditions: cited from earlier work

T1 sequence (O60603 21-784): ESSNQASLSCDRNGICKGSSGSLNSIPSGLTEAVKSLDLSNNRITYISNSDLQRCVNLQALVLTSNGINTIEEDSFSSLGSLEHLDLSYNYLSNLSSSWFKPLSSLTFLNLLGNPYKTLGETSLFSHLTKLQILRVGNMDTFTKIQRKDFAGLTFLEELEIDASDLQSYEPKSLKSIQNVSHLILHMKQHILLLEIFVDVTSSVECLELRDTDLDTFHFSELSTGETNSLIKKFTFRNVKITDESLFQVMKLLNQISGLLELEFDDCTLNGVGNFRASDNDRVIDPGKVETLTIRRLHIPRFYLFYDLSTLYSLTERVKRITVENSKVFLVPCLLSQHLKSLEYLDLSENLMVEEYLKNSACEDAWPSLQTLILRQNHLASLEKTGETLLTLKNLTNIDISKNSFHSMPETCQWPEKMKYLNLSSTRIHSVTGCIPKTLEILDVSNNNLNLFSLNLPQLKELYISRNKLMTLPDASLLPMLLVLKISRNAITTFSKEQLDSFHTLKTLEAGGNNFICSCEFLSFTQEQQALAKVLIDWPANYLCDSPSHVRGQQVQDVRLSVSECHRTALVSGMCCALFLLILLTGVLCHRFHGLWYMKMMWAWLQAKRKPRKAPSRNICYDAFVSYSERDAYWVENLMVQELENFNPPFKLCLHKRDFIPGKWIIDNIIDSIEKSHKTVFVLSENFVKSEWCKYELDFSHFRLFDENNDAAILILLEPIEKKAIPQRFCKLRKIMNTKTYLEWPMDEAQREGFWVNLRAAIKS
T1 sequence (Q15399 25-786): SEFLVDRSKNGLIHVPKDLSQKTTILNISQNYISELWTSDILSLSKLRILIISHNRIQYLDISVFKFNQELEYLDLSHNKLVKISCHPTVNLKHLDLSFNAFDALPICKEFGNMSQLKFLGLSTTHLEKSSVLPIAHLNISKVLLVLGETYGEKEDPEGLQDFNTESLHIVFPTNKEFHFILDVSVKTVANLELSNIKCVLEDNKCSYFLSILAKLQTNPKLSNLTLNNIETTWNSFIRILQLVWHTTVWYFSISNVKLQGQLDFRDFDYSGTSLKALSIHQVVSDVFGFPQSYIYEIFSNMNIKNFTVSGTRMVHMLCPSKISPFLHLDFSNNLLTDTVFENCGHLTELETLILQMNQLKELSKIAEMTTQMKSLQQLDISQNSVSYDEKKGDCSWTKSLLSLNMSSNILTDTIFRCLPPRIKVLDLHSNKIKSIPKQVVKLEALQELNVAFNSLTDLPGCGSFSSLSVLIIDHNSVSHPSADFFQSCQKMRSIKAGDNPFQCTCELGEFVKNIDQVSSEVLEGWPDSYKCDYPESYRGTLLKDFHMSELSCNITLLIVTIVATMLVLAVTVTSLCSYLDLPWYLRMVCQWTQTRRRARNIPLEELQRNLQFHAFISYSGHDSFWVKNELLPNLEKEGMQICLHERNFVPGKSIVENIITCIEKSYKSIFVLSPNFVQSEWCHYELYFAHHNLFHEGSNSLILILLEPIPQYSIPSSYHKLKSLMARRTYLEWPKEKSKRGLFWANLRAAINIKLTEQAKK

For `CCCCCCCCCCCCCCCC(=O)N[C@@H](CSC[C@@H](COC(=O)CCCCCCCCCCC)OC(=O)CCCCCCCCCCC)C(=O)N[C@@H](C)C(=O)N[C@H](CCC(=O)O)C(N)=O` [DA-98-WW07, (4R,7S,10R,14R)-4-carbamoyl-14-(dodecanoyloxy)-7-methyl-6,9,17-trioxo-10-palmitamido-16-oxa-12-thia-5,8-diazaoctacosanoic acid], which EC50 (human TLR2) is on record?
The EC50 was 1.04 ± 1.16 µM.

And the “efficacy (% Eff), NF-κB-Luciferase” value (human TLR2)?
The value was 101.36%.

With `CCc1nc2c(N)nc3ccccc3c2n1CCCCNS(C)(=O)=O` [PF4878691] as the molecule, how does the “adverse effects in patients” value [1] read?
The value was “flu-like symptoms, lymphopenia and hypotension”.

With `O=C(O)c1cn(C2CC2)c2cc(N3CCNCC3)c(F)cc2c1=O` [ciprofloxacin] as the molecule, how does the survival rate [2] read?
Its survival rate is 50%.

Which “pulmonary bacterial burden in mice” value (Streptococcus pneumoniae) does the source give for MALP-2 here?
The value was “reduced pulmonary bacterial burden in mice”.

Which survival rate [3] does the source give for ODN1826 here?
Its survival rate is 0%.

With Pam2CSK4 as the molecule, how does the “induction of NF-kB activity” value (human TLR2) read?
The value was “dose dependent induction of NF-kB activity”.

And the survival rate [3]?
The survival rate was 20%.

What about the “induction of IFN-γ, TNF-α and IL-6 production” value (human PBMCs) of the same molecule?
Its value is “able to induce aforementioned cytokine productions with varying potency”.

Which “induction of NF-kB activity” value (human TLR2) does the source give for Pam3CSK4 here?
The value was “dose dependent induction of NF-kB activity”.

And the survival rate [3]?
Its survival rate is 60%.

And the “protection of mice from lethal challenge of B. anthracis” value ([3]; in vivo)?
The value was “the best at protecting mice from lethal challenge of B. anthracis”.

And the survival rate [4]?
The survival rate was 40%.

What about the “survival rate after re-challenge” value (B. anthracis) of the same molecule?
Its value is 25%.

What about the “induction of IFN-γ, TNF-α and IL-6 production” value (human PBMCs) of the same molecule?
Its value is “able to induce aforementioned cytokine productions with varying potency”.

Which “protection from S. aureus endophthalmitis” value (S. aureus) does the source give for Pam3Cys here?
Its value is “protected mice from S. aureus endophthalmitis, preserved retinal structural integrity, and maintained visual function”.

For Poly (I:C), which survival rate [3] is on record?
The survival rate was 20%.

Which results are given for lipopolysaccharide [LPS]?
induction of NF-kB activity (human TLR2): dose dependent induction of NF-kB activity; induction of IFN-γ, TNF-α and IL-6 production (human PBMCs): able to induce aforementioned cytokine productions with varying potency

B1: obiltoxaximab (antibody, chains of the INN, looked up, V domains shown)
VH: QVQLQQSGPELKKPGASVKVSCKDSGYAFSSSWMNWVRQAPGQGLEWIGRIYPGDGDTNYNGKFQGRVTITADKSSSTAYMELSSLRSEDTAVYFCARSGLLRYAMDYWGQGTLVTVSS
VL: DIQMTQSPSSLSASVGDRVTITCRASQDIRNYLNWYQQKPGKAVKLLIYYTSRLLPGVPSRFSGSGSGTDYSLTISSQEQEDIGTYFCQQGNTLPWTFGQGTKVEIR
Which “binding to PA and block of binding to anthrax toxin receptors” value (PA) does the source give for B1 here?
Its value is “bind to PA and block its binding to anthrax toxin receptors”.

From publication PMC8965344 (Frontiers in Microbiology, 2022)
